For series [1], the system named is normal cells. The following applies: cited from earlier work.
Series [2] relates to renal cell carcinoma. The note with it: mouse renal cell carcinoma model; cited from earlier work.
The subject of series [3] is NAPRTases. The following applies: cited from earlier work.
For series [4], the system named is tumor cells. The note with it: cited from earlier work.
Series [5] concerns the target T1, NMPRTase (Homo sapiens, UniProt P43490).
T1 construct: Full-length human and murine NMPRTase (residues 1-491) was sub-cloned into the pET26b vector; made in house; host or cells: E. coli (pET26b vector)
Briefly: NMPRTase coupled-enzyme spectrometric assay. Type of series: biochemical. The following applies: FIG. 5; Vmax=kcat([E]-[I]).
Procedure: The catalytic activity of NMPRTase was determined using a coupled-enzyme spectrometric assay, following a published protocol (Revollo et al., 2004). Briefly, the NMN product of NMPRTase is converted to NAD^+ with the enzyme NMN/NAMN adenylyltransferase (NMNAT), and NAD^+ is then reduced to NADH by alcohol dehydrogenase (Sigma) using ethanol as the substrate. By monitoring the appearance of NADH at 340 nm, the activity of NMPRTase can be determined. […] The reaction buffer contains 50 mM Tris (pH 7.5), 0.4 mM PRPP, various concentrations of NM (or NA), 2.5 mM ATP, 12 mM MgCl2, 1.5% ethanol, 10 mM semicarbazide (to remove the acetaldehyde product of ethanol oxidation), 0.02% BSA, 10 mg/ml NMNAT, 30 mg/ml ADH, and 0.5 mM NMPRTase. The reactions are carried out at room temperature.

Molecules are shown by their SMILES.

T1 sequence (P43490 whole entry, the tested form may be a part): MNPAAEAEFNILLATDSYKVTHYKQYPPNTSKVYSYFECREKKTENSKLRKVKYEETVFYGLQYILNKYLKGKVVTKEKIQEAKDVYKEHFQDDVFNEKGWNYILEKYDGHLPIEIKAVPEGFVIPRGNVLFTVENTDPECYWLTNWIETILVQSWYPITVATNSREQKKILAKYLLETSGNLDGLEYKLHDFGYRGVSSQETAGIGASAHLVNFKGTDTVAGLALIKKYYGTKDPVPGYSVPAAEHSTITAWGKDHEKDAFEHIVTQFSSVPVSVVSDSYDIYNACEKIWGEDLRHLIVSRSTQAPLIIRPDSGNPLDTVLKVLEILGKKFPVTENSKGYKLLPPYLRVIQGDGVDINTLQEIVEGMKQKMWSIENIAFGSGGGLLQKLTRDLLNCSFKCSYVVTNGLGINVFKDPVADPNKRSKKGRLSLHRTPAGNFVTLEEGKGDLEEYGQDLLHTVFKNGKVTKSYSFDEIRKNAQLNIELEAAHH

For the molecule `O=C(/C=C/c1cccnc1)NCCCCC1CCN(C(=O)c2ccccc2)CC1` [FK866, (E)-N-[4-(1-benzoylpiperidin-4-yl)butyl]-3-(pyridin-3-yl)acrylamide], the “toxicity to normal cells” value in series [1] is listed as “little toxicity”. Also, the anti-angiogenic effects result in series [2] is “potent anti-angiogenic effects”. In addition, the “inhibition of NAPRTases” value in series [3] is “does not inhibit”. Also, in series [4], the apoptosis result is “induces apoptosis” and the “intracellular NAD+ levels” value is reported as “depletion of intracellular NAD^+ levels”. Further, the “relationship between FK866 concentration and Vmax” value in series [5] is recorded as “linear relationship”.
